In ChEMBL document CHEMBL4420062, “Tfpi inhibitors and methods of use” (2013):
Where a SMILES comes first, the peptide text is derived from it. [ ]: non-standard residue; d: D form. The star is where a group is joined. Tle = CC(C)(C)[C@H](N)C(=O)O; Hexanoyl = CCCCCC(=O)*; Aib = CC(C)(N)C(=O)O; Acm = CC(=O)NC*

Test: Stability in human plasma assessed as parent compound remaining after 24 hrs
Type: ADME, cell-free
Conditions: read-out: Stability

Row | Structure (SMILES) | remaining at 24 h
1 | CCN1C(=O)CC(SC[C@H](NC(=O)[C@H](CC(C)C)NC(=O)[C@H](CCCCN)NC(=O)[C@H](C)NC(=O)C(C)(C)NC(=O)[C@H](CC(C)C)NC(=O)[C@H](CCCNC(=N)N)NC(=O)[C@H](CCC(=O)O)NC(=O)[C@H](Cc2ccccc2)NC(=O)[C@H](Cc2ccc(O)cc2)NC(=O)CNC(=O)[C@@H]2CCCN2C(=O)[C@@H](NC(=O)[C@H](Cc2cnc[nH]2)NC(=O)[C@@H](NC(=O)[C@H](CC(N)=O)NC(=O)[C@H]2CCCN2C(=O)[C@H](CCCCN)NC(=O)[C@H](CO)NC(=O)[C@H](CCC(N)=O)NC(=O)[C@H](Cc2ccccc2)NC(C)=O)C(C)C)C(C)(C)C)C(N)=O)C1=O (stereo partly specified) | 55.9%
2 | CCN1C(=O)CC(SC[C@H](NC(=O)[C@H](CC(C)C)NC(=O)[C@H](CCCCN)NC(=O)[C@H](C)NC(=O)C(C)(C)NC(=O)[C@H](CC(C)C)NC(=O)[C@H](CCCNC(=N)N)NC(=O)[C@H](CCC(=O)O)NC(=O)[C@H](Cc2ccccc2)NC(=O)[C@H](Cc2ccc(O)cc2)NC(=O)CNC(=O)[C@H](CC(=O)O)NC(=O)[C@@H](NC(=O)[C@H](Cc2cnc[nH]2)NC(=O)[C@@H](NC(=O)[C@H](CC(N)=O)NC(=O)[C@H]2CCCN2C(=O)[C@H](CCCCN)NC(=O)[C@H](CO)NC(=O)[C@H](CCC(N)=O)NC(=O)[C@H](Cc2ccccc2)NC(C)=O)C(C)C)C(C)(C)C)C(N)=O)C1=O (stereo partly specified) | 52%
3 | CC(C)C[C@@H]1NC(=O)[C@H](CCCCN)NC(=O)[C@H](C)NC(=O)C(C)(C)NC(=O)[C@H](CC(C)C)NC(=O)[C@H](CCCNC(=N)N)NC(=O)[C@H](CCC(=O)O)NC(=O)[C@H](Cc2ccccc2)NC(=O)[C@H](Cc2ccc(O)cc2)NC(=O)CNC(=O)[C@H](CC(=O)O)NC(=O)[C@H](C(C)C)NC(=O)[C@H](Cc2cnc[nH]2)NC(=O)[C@H](C(C)C)NC(=O)[C@H](CC(N)=O)NC(=O)[C@H]2CCCN2C(=O)[C@H](CCCCN)NC(=O)[C@H](CO)NC(=O)[C@H](CCC(N)=O)NC(=O)[C@H](Cc2ccccc2)NC(=O)CCOCCOCCOCCOCCNC1=O | 55.9%
4 | CC(=O)N[C@@H](Cc1ccccc1)C(=O)N[C@@H](CCC(N)=O)C(=O)N[C@@H](CO)C(=O)N[C@@H](CCCCN)C(=O)N1CCC[C@@H]1C(=O)N[C@@H](CC(N)=O)C(=O)N[C@H](C(=O)N[C@@H](Cc1cnc[nH]1)C(=O)N[C@H](C(=O)N1CCC[C@H]1C(=O)NCC(=O)N[C@@H](Cc1ccc(O)cc1)C(=O)N[C@@H](Cc1ccccc1)C(=O)N[C@@H](CCC(=O)O)C(=O)N[C@@H](CCCNC(=N)N)C(=O)N[C@@H](CC(C)C)C(=O)NC(C)(C)C(=O)N[C@@H](C)C(=O)N[C@@H](CCCCN)C(=O)N[C@@H](CC(C)C)C(N)=O)C(C)C)C(C)C | 76.3%
5 | CC(C)C[C@H](NC(=O)[C@H](CCCCN)NC(=O)[C@H](C)NC(=O)C(C)(C)NC(=O)[C@H](CC(C)C)NC(=O)[C@H](CCCNC(=N)N)NC(=O)[C@H](CCC(=O)O)NC(=O)[C@H](Cc1ccccc1)NC(=O)[C@H](Cc1ccc(O)cc1)NC(=O)[C@@H](C)NC(=O)[C@H](CC(=O)O)NC(=O)[C@@H](NC(=O)[C@H](Cc1cnc[nH]1)NC(=O)[C@@H](NC(=O)[C@H](CC(N)=O)NC(=O)[C@H]1CCCN1C(=O)[C@H](CCCCN)NC(=O)[C@H](CO)NC(=O)[C@H](CCC(N)=O)NC(=O)[C@H](Cc1ccccc1)NC(=O)Cc1ccc2ccccc2c1)C(C)C)C(C)(C)C)C(N)=O | 108%
6 | CC(=O)N[C@@H](Cc1ccccc1)C(=O)N[C@@H](CCC(N)=O)C(=O)N[C@@H](CO)C(=O)N[C@@H](CCCCN)C(=O)N(CCCN)CC(=O)N[C@@H](CC(N)=O)C(=O)N[C@H](C(=O)N[C@@H](Cc1cnc[nH]1)C(=O)N[C@H](C(=O)N[C@@H](CC(=O)O)C(=O)NCC(=O)N[C@@H](Cc1ccc(O)cc1)C(=O)N[C@@H](Cc1ccccc1)C(=O)N[C@@H](CCC(=O)O)C(=O)N[C@@H](CCCNC(=N)N)C(=O)N[C@@H](CC(C)C)C(=O)NC(C)(C)C(=O)N[C@@H](C)C(=O)N[C@@H](CCCCN)C(=O)N[C@@H](CC(C)C)C(N)=O)C(C)C)C(C)C | 46.7%
7 | CCN1C(=O)CC(SC[C@H](NC(=O)[C@H](CC(C)C)NC(=O)[C@H](CCCCN)NC(=O)[C@H](C)NC(=O)C(C)(C)NC(=O)[C@H](CC(C)C)NC(=O)[C@H](CCCNC(=N)N)NC(=O)[C@H](CCC(=O)O)NC(=O)[C@H](Cc2ccccc2)NC(=O)[C@H](Cc2ccc(O)cc2)NC(=O)CNC(=O)[C@@H]2CCCN2C(=O)[C@@H](NC(=O)[C@H](Cc2cnc[nH]2)NC(=O)[C@@H](NC(=O)[C@H](CC(N)=O)NC(=O)[C@H]2CCCN2C(=O)[C@H](CCCCN)NC(=O)[C@H](CO)NC(=O)[C@H](CCC(N)=O)NC(=O)[C@H](Cc2ccccc2)NC(C)=O)C(C)C)C(C)C)C(N)=O)C1=O (stereo partly specified) | 58%
8 | CC(=O)N[C@@H](Cc1ccccc1)C(=O)N[C@@H](CCC(N)=O)C(=O)N[C@@H](CO)C(=O)N[C@@H](CCCCN)C(=O)N1CCC[C@@H]1C(=O)N[C@@H](CCCNC(=N)N)C(=O)N[C@H](C(=O)N[C@@H](Cc1cnc[nH]1)C(=O)N[C@H](C(=O)N[C@@H](CC(=O)O)C(=O)NCC(=O)N[C@@H](Cc1ccc(O)cc1)C(=O)N[C@@H](Cc1ccccc1)C(=O)N[C@@H](CCC(=O)O)C(=O)N[C@@H](CCCNC(=N)N)C(=O)N[C@@H](CC(C)C)C(=O)NC(C)(C)C(=O)N[C@@H](C)C(=O)N[C@@H](CCCCN)C(=O)N[C@@H](CC(C)C)C(N)=O)C(C)(C)C)C(C)C | 66.1%
9 | CCN1C(=O)CC(SC[C@H](NC(=O)[C@H](CC(C)C)NC(=O)[C@H](CCCCN)NC(=O)[C@H](C)NC(=O)C(C)(C)NC(=O)[C@H](CC(C)C)NC(=O)[C@H](CCCNC(=N)N)NC(=O)[C@H](CCC(=O)O)NC(=O)[C@H](Cc2ccccc2)NC(=O)[C@H](Cc2ccc(O)cc2)NC(=O)CNC(=O)[C@H](CO)NC(=O)[C@@H](NC(=O)[C@H](Cc2cnc[nH]2)NC(=O)[C@@H](NC(=O)[C@H](CC(N)=O)NC(=O)[C@H]2CCCN2C(=O)[C@H](CCCCN)NC(=O)[C@H](CO)NC(=O)[C@H](CCC(N)=O)NC(=O)[C@H](Cc2ccccc2)NC(C)=O)C(C)C)C(C)C)C(N)=O)C1=O (stereo partly specified) | 33.4%
10 | CCCCCC(=O)N[C@@H](Cc1ccccc1)C(=O)N[C@@H](CCC(N)=O)C(=O)N[C@@H](CO)C(=O)N[C@@H](CCCCN)C(=O)N1CCC[C@@H]1C(=O)N[C@@H](CSCNC(C)=O)C(=O)N[C@H](C(=O)N[C@@H](Cc1cnc[nH]1)C(=O)N[C@H](C(=O)N[C@@H](CC(=O)O)C(=O)N[C@H](C)C(=O)N[C@@H](Cc1ccc(O)cc1)C(=O)N[C@@H](Cc1ccccc1)C(=O)N[C@@H](CCC(=O)O)C(=O)N[C@@H](CCCNC(=N)N)C(=O)N[C@@H](CC(C)C)C(=O)NC(C)(C)C(=O)N[C@@H](C)C(=O)N[C@@H](CCCCN)C(=O)N[C@@H](CC(C)C)C(N)=O)C(C)(C)C)C(C)C (Hexanoyl-FQSK[dP]C(Acm)VH[Tle]D[dA]YFERL[Aib]AKL-NH2) | 90.1 to 93%
11 | CC(=O)N[C@@H](Cc1ccccc1)C(=O)N[C@@H](CCC(N)=O)C(=O)N[C@@H](CO)C(=O)N[C@@H](CCCCN)C(=O)N(CC(=O)N[C@@H](CC(N)=O)C(=O)N[C@H](C(=O)N[C@@H](Cc1cnc[nH]1)C(=O)N[C@H](C(=O)N[C@@H](CC(=O)O)C(=O)NCC(=O)N[C@@H](Cc1ccc(O)cc1)C(=O)N[C@@H](Cc1ccccc1)C(=O)N[C@@H](CCC(=O)O)C(=O)N[C@@H](CCCNC(=N)N)C(=O)N[C@@H](CC(C)C)C(=O)NC(C)(C)C(=O)N[C@@H](C)C(=O)N[C@@H](CCCCN)C(=O)N[C@@H](CC(C)C)C(N)=O)C(C)C)C(C)C)C1CCCCC1 | 17.4%
12 | CCN1C(=O)CC(SC[C@H](NC(=O)[C@H](CC(C)C)NC(=O)[C@H](CCCCN)NC(=O)[C@H](C)NC(=O)C(C)(C)NC(=O)[C@H](CC(C)C)NC(=O)[C@H](CCCNC(=N)N)NC(=O)[C@H](CCC(=O)O)NC(=O)[C@H](Cc2ccccc2)NC(=O)[C@H](Cc2ccc(O)cc2)NC(=O)[C@H](C)NC(=O)[C@H](CC(=O)O)NC(=O)[C@@H](NC(=O)[C@H](Cc2cnc[nH]2)NC(=O)[C@@H](NC(=O)[C@H](CC(N)=O)NC(=O)[C@H]2CCCN2C(=O)[C@H](CCCCN)NC(=O)[C@H](CO)NC(=O)[C@H](CCC(N)=O)NC(=O)[C@H](Cc2ccccc2)NC(C)=O)C(C)C)C(C)C)C(N)=O)C1=O (stereo partly specified) | 17.9%
13 | CCN1C(=O)CC(SC[C@H](NC(=O)[C@H](CC(C)C)NC(=O)[C@H](CCCCN)NC(=O)[C@H](C)NC(=O)C(C)(C)NC(=O)[C@H](CC(C)C)NC(=O)[C@H](CCCNC(=N)N)NC(=O)[C@H](CCC(=O)O)NC(=O)[C@H](Cc2ccccc2)NC(=O)[C@H](Cc2ccc(O)cc2)NC(=O)CNC(=O)[C@H](Cc2cnc[nH]2)NC(=O)[C@@H](NC(=O)[C@H](Cc2cnc[nH]2)NC(=O)[C@@H](NC(=O)[C@H](CC(N)=O)NC(=O)[C@H]2CCCN2C(=O)[C@H](CCCCN)NC(=O)[C@H](CO)NC(=O)[C@H](CCC(N)=O)NC(=O)[C@H](Cc2ccccc2)NC(C)=O)C(C)C)C(C)C)C(N)=O)C1=O (stereo partly specified) | 18.6%
14 | CCN1C(=O)CC(SC[C@H](NC(=O)[C@H](CC(C)C)NC(=O)[C@H](CCCCN)NC(=O)[C@H](C)NC(=O)C(C)(C)NC(=O)[C@H](CC(C)C)NC(=O)[C@H](CCCNC(=N)N)NC(=O)[C@H](CCC(=O)O)NC(=O)[C@H](Cc2ccccc2)NC(=O)[C@H](Cc2ccc(O)cc2)NC(=O)CNC(=O)[C@H](CC(=O)O)N(C)C(=O)[C@@H](NC(=O)[C@H](Cc2cnc[nH]2)NC(=O)[C@@H](NC(=O)[C@H](CC(N)=O)NC(=O)[C@H]2CCCN2C(=O)[C@H](CCCCN)NC(=O)[C@H](CO)NC(=O)[C@H](CCC(N)=O)NC(=O)[C@H](Cc2ccccc2)NC(C)=O)C(C)C)C(C)C)C(N)=O)C1=O (stereo partly specified) | 46.5%
15 | CC(=O)N[C@@H](Cc1ccccc1)C(=O)N[C@@H](CCC(N)=O)C(=O)N[C@@H](CO)C(=O)N[C@@H](CCCCN)C(=O)N1CCC[C@@H]1C(=O)N[C@@H](CC(N)=O)C(=O)N[C@H](C(=O)N[C@@H](Cc1cnc[nH]1)C(=O)N[C@H](C(=O)N1CCC[C@H]1C(=O)N[C@@H]1CSSCC[C@@H](C(=O)N[C@@H](CCCNC(=N)N)C(=O)N[C@@H](CC(C)C)C(=O)NC(C)(C)C(=O)N[C@@H](C)C(=O)N[C@@H](CCCCN)C(=O)N[C@@H](CC(C)C)C(N)=O)NC(=O)[C@H](Cc2ccccc2)NC(=O)[C@H](Cc2ccc(O)cc2)NC1=O)C(C)C)C(C)C | 40.7%
16 | CCN1C(=O)CC(SC[C@H](NC(=O)[C@H](CC(C)C)NC(=O)[C@H](CCCCN)NC(=O)[C@H](C)NC(=O)C(C)(C)NC(=O)[C@H](CC(C)C)NC(=O)[C@H](CCCNC(=N)N)NC(=O)[C@H](CCC(=O)O)NC(=O)[C@H](Cc2ccccc2)NC(=O)[C@H](Cc2ccc(O)cc2)NC(=O)CNC(=O)[C@@H](CC(=O)O)NC(=O)[C@@H](NC(=O)[C@H](Cc2cnc[nH]2)NC(=O)[C@@H](NC(=O)[C@H](CS)NC(=O)[C@H]2CCCN2C(=O)[C@H](CCCCN)NC(=O)[C@H](CO)NC(=O)[C@H](CCC(N)=O)NC(=O)[C@H](Cc2ccccc2)NC(C)=O)C(C)C)C(C)C)C(N)=O)C1=O (stereo partly specified) | 70.9%
